Source: patent US7118895B2, “Process for producing aglycon by using diglycosidase and flavor-improved food containing the aglycon and converting agent to be used in the process” (Amano Enzyme Inc., priority 2000, dated 2006)

Assays:
[1] = test system: Diglycosidase derived from P. multicolor; test: Reactivity toward various isoflavone glycosides (HPLC); type: biochemical, Penicillium multicolor; parameters: glucoside / aglycon: unit not given here; conditions: for aglycon / glucoside: 55 °C, pH 4.0
Protocol: (§1) Diglycosidase was diluted with an acetate buffer of pH 4.0 to prepare a 0.75 AU/mL enzyme solution. As references, a similar operation was conducted using β-glucosidase (manufactured by Fluka) derived from Aspergillus niger, β-glucosidase (manufactured by Sigma) derived from almond, β-xylosidase derived from pectinase G (manufactured by Amano Enzyme Inc.). Each of purified products of isoflavone glycosides (glycitin, acetylglycitin, malonylglycitin, daidzin, acetyldaidzin, malonyldaidzin, genistin, acetylgenistin, malonylgenistin, all manufactured by Nacalai Tesque, Inc.) was dissolved in methanol to prepare each 2 mM substrate solution. The reaction was carried out by mixing 10 μL of a substrate solution, 200 μL of 20 mM acetate buffer (pH 4.0), and 40 μL of each purified enzyme solution at a total liquid volume of 250 μL. The reaction was carried out at 55° C. and isolation of an aglycon isoflavone from an isoflavone glycoside in the reaction mixture was detected by HLPC at 0, 1, 3, and 6 hours of the reaction.
(§2) To the reaction mixture was added 700 μL of ethanol, followed by stirring and ultrasonication. After centrifugation at 15,000 rpm and 4° C. for 10 minutes, the supernatant was filtered through a filter and then the filtrate was applied to HPLC.
(§3) The isoflavone glycoside and aglycon isoflavone contained in the filtrate was separated and detected by a high performance liquid chromatography (HPLC, Shimadzu CLASS LC-10 system) using TOSOH TSK gel ODS-80TM column (manufactured by Tosoh Corporation). […] The absorbance at 260 nm was detected by a UV detector (Shimadzu, SPD-10AV). Using purified products (manufactured by Nacalai Tesque, Inc.) of the above isoflavone glycosides and aglycon isoflavones, the isoflavone glycoside and aglycon isoflavone were quantitatively determined according to a calibration curve method. By the way, unless otherwise stated, the measuring conditions of HPLC herein mean those described in the example.

[2] = test system: β-Glucosidase derived from almond; test: as above; type: biochemical; parameters: unit not given here; conditions: 55 °C, pH 4.0
Protocol: as §1, §2, §3

[3] = test system: β-Xylosidase derived from pectinase G; test: as above; type: biochemical; parameters: unit not given here; conditions: 55 °C, pH 4.0
Protocol: as §1, §2, §3

Purified diglycosidase = test: Influence of free glucose on diglycosidase activity; type: biochemical, Penicillium multicolor IAM7153; conditions: isolated aglycon amount at glucose 0% and 0.5 hour = 100%
Protocol: Purified diglycosidase was diluted with 20 mM acetate buffer of pH 4.0 to prepare a 0.75 AU/mL enzyme solution.
With a glucose solution was mixed 10 μL of each 2 mM substrate solution described in Example 2, and 20 mM acetate buffer of pH 4.0 was added thereto to be a liquid volume of 210 μL. Further, 40 μL of the enzyme solution was added and reaction was carried out at a final liquid volume of 250 μL. Adjustment of the glucose solution to be added allows glucose to exist in the reaction mixture in the range of 0 to 20%. The reaction was carried out at 55° C. and the existence of isoflavone glycosides and aglycon isoflavones was detected by HLPC at 0, 0.5, 1, and 3 hours of the reaction.

[4] = test system: Diglycosidase derived from A. fumigatus; test: Reactivity toward various isoflavone glycosides (HPLC); type: biochemical, Aspergillus fumigatus; parameters: unit not given here; conditions: 55 °C, pH 4.0
Protocol: as §1, §2, §3

Row | aglycon ([1]; Reaction time 0 h) | glucoside ([1]; Reaction time 0 h) | aglycon ([1]; Reaction time 1 h) | glucoside ([1]; Reaction time 1 h) | aglycon ([1]; Reaction time 3 h) | glucoside ([1]; Reaction time 3 h) | aglycon ([1]; Reaction time 6 h) | glucoside ([1]; Reaction time 6 h) | aglycon ([2]; Reaction time 0 h) | glucoside ([2]; Reaction time 0 h) | aglycon ([2]; Reaction time 1 h) | glucoside ([2]; Reaction time 1 h) | aglycon ([2]; Reaction time 3 h) | glucoside ([2]; Reaction time 3 h) | aglycon ([2]; Reaction time 6 h) | glucoside ([2]; Reaction time 6 h) | aglycon ([3]; Reaction time 0 h) | glucoside ([3]; Reaction time 0 h) | aglycon ([3]; Reaction time 1 h) | glucoside ([3]; Reaction time 1 h) | Structure (SMILES) | also measured
1 | 0 | 100 | 99.8 | 0.2 | 99.9 | 0.1 | 99.8 | 0.2 | 0 | 100 | 0 | 100 | 0 | 100 | 0 | 100 | 0 | 100 | 0 | 100 | CC(=O)OC[C@H]1O[C@@H](Oc2cc(O)c3c(=O)c(-c4ccc(O)cc4)coc3c2)[C@H](O)[C@@H](O)[C@@H]1O [acetylgenistin, 6″-O-acetylgenistin] | aglycon ([3]; Reaction time 3 h): 0.2; glucoside ([3]; Reaction time 3 h): 99.8; aglycon ([3]; Reaction time 6 h): 0.5; glucoside ([3]; Reaction time 6 h): 99.5; Isolation of isoflavone aglycons by diglycosidase in presence of glucose (Purified diglycosidase; Glucose concentration 0 %): 100%; Isolation of isoflavone aglycons by diglycosidase in presence of glucose (Purified diglycosidase; Glucose concentration 2 %): 104.1%; Isolation of isoflavone aglycons by diglycosidase in presence of glucose (Purified diglycosidase; Glucose concentration 4 %): 104.1%; Isolation of isoflavone aglycons by diglycosidase in presence of glucose (Purified diglycosidase; Glucose concentration 8 %): 104.1%; Isolation of isoflavone aglycons by diglycosidase in presence of glucose (Purified diglycosidase; Glucose concentration 20 %): 104.1%; aglycon ([4]; Reaction time 0 h): 0; glucoside ([4]; Reaction time 0 h): 100; aglycon ([4]; Reaction time 1 h): 12.6; glucoside ([4]; Reaction time 1 h): 87.4; aglycon ([4]; Reaction time 3 h): 22.9; glucoside ([4]; Reaction time 3 h): 77.1; aglycon ([4]; Reaction time 6 h): 35.2; glucoside ([4]; Reaction time 6 h): 64.8
2 | 0 | 100 | 98 | 2 | 97.9 | 2.1 | 97.5 | 2.5 | 0 | 100 | 0 | 100 | 0 | 100 | 0 | 100 | 0 | 100 | 0 | 100 | COc1cc2c(=O)c(-c3ccc(O)cc3)coc2cc1O[C@@H]1O[C@H](COC(C)=O)[C@@H](O)[C@H](O)[C@H]1O [acetylglycitin, 6″-O-acetylglycitin] | aglycon ([3]; Reaction time 3 h): 0; glucoside ([3]; Reaction time 3 h): 100; aglycon ([3]; Reaction time 6 h): 0; glucoside ([3]; Reaction time 6 h): 100; Isolation of isoflavone aglycons by diglycosidase in presence of glucose (Purified diglycosidase; Glucose concentration 0 %): 100%; Isolation of isoflavone aglycons by diglycosidase in presence of glucose (Purified diglycosidase; Glucose concentration 2 %): 100.9%; Isolation of isoflavone aglycons by diglycosidase in presence of glucose (Purified diglycosidase; Glucose concentration 4 %): 100.9%; Isolation of isoflavone aglycons by diglycosidase in presence of glucose (Purified diglycosidase; Glucose concentration 8 %): 100.9%; Isolation of isoflavone aglycons by diglycosidase in presence of glucose (Purified diglycosidase; Glucose concentration 20 %): 100.9%; aglycon ([4]; Reaction time 0 h): 0; glucoside ([4]; Reaction time 0 h): 100; aglycon ([4]; Reaction time 1 h): 6; glucoside ([4]; Reaction time 1 h): 94; aglycon ([4]; Reaction time 3 h): 13.5; glucoside ([4]; Reaction time 3 h): 86.5; aglycon ([4]; Reaction time 6 h): 22.7; glucoside ([4]; Reaction time 6 h): 77.3
3 | 0 | 100 | 0 | 100 | 0 | 100 | 0 | 100 | 0 | 100 | 9.4 | 90.6 | 11.4 | 88.6 | 11.8 | 88.2 | 0 | 100 | 1.5 | 98.5 | O=c1c(-c2ccc(O)cc2)coc2cc(O[C@@H]3O[C@H](CO)[C@@H](O)[C@H](O)[C@H]3O)cc(O)c12 [genistin] | efficiency of decomposing by diglycosidase with combined use of β-glucosidase ([1]; combined use of β-glucosidase in addition to the enzyme): further enhanced; aglycon ([3]; Reaction time 3 h): 1.8; glucoside ([3]; Reaction time 3 h): 98.2; aglycon ([3]; Reaction time 6 h): 1.8; glucoside ([3]; Reaction time 6 h): 98.2; aglycon ([4]; Reaction time 0 h): 0; glucoside ([4]; Reaction time 0 h): 100; aglycon ([4]; Reaction time 1 h): 0; glucoside ([4]; Reaction time 1 h): 100; aglycon ([4]; Reaction time 3 h): 0; glucoside ([4]; Reaction time 3 h): 100; aglycon ([4]; Reaction time 6 h): 0; glucoside ([4]; Reaction time 6 h): 100

Row | Structure (SMILES) | aglycon ([1]; Reaction time 0 h) | glucoside ([1]; Reaction time 0 h) | aglycon ([1]; Reaction time 1 h) | glucoside ([1]; Reaction time 1 h) | aglycon ([1]; Reaction time 3 h) | glucoside ([1]; Reaction time 3 h) | aglycon ([1]; Reaction time 6 h) | glucoside ([1]; Reaction time 6 h) | aglycon ([2]; Reaction time 0 h) | glucoside ([2]; Reaction time 0 h) | aglycon ([2]; Reaction time 1 h) | glucoside ([2]; Reaction time 1 h) | aglycon ([2]; Reaction time 3 h) | glucoside ([2]; Reaction time 3 h) | aglycon ([2]; Reaction time 6 h) | glucoside ([2]; Reaction time 6 h) | aglycon ([3]; Reaction time 0 h) | glucoside ([3]; Reaction time 0 h) | aglycon ([3]; Reaction time 1 h) | glucoside ([3]; Reaction time 1 h) | also measured
4 | CC(=O)OC[C@H]1O[C@@H](Oc2ccc3c(=O)c(-c4ccc(O)cc4)coc3c2)[C@H](O)[C@@H](O)[C@@H]1O [acetyldaidzin, 6″-O-acetyldaidzin] | 0 | 100 | 89.6 | 10.4 | 96.2 | 3.8 | 96.2 | 3.8 | 0.2 | 99.8 | 0.5 | 99.5 | 0.6 | 99.4 | 0.6 | 99.4 | 0 | 100 | 9.7 | 90.3 | aglycon ([3]; Reaction time 3 h): 1.3; glucoside ([3]; Reaction time 3 h): 98.7; aglycon ([3]; Reaction time 6 h): 2.3; glucoside ([3]; Reaction time 6 h): 97.7; Isolation of isoflavone aglycons by diglycosidase in presence of glucose (Purified diglycosidase; Glucose concentration 0 %): 100%; Isolation of isoflavone aglycons by diglycosidase in presence of glucose (Purified diglycosidase; Glucose concentration 2 %): 108.1%; Isolation of isoflavone aglycons by diglycosidase in presence of glucose (Purified diglycosidase; Glucose concentration 4 %): 112.2%; Isolation of isoflavone aglycons by diglycosidase in presence of glucose (Purified diglycosidase; Glucose concentration 8 %): 115.8%; Isolation of isoflavone aglycons by diglycosidase in presence of glucose (Purified diglycosidase; Glucose concentration 20 %): 114.5%; aglycon ([4]; Reaction time 0 h): 0; glucoside ([4]; Reaction time 0 h): 100; aglycon ([4]; Reaction time 1 h): 26.1; glucoside ([4]; Reaction time 1 h): 73.9; aglycon ([4]; Reaction time 3 h): 47.2; glucoside ([4]; Reaction time 3 h): 52.8; aglycon ([4]; Reaction time 6 h): 66.5; glucoside ([4]; Reaction time 6 h): 33.5
5 | O=c1c(-c2ccc(O)cc2)coc2cc(O[C@@H]3O[C@H](CO)[C@@H](O)[C@H](O)[C@H]3O)ccc12 [daidzin] | 0.9 | 99.1 | 70.1 | 29.9 | 81.8 | 18.2 | 88.5 | 11.5 | 0.9 | 99.1 | 9.1 | 90.9 | 10.8 | 89.2 | 11.3 | 88.7 | 0.9 | 99.1 | 9.1 | 90.9 | aglycon ([3]; Reaction time 3 h): 24; glucoside ([3]; Reaction time 3 h): 76; aglycon ([3]; Reaction time 6 h): 42.1; glucoside ([3]; Reaction time 6 h): 57.9; Isolation of isoflavone aglycons by diglycosidase in presence of glucose (Purified diglycosidase; Glucose concentration 0 %): 100%; Isolation of isoflavone aglycons by diglycosidase in presence of glucose (Purified diglycosidase; Glucose concentration 2 %): 128.1%; Isolation of isoflavone aglycons by diglycosidase in presence of glucose (Purified diglycosidase; Glucose concentration 4 %): 126%; Isolation of isoflavone aglycons by diglycosidase in presence of glucose (Purified diglycosidase; Glucose concentration 8 %): 129.1%; Isolation of isoflavone aglycons by diglycosidase in presence of glucose (Purified diglycosidase; Glucose concentration 20 %): 111.9%; aglycon ([4]; Reaction time 0 h): 0.9; glucoside ([4]; Reaction time 0 h): 99.1; aglycon ([4]; Reaction time 1 h): 7.1; glucoside ([4]; Reaction time 1 h): 92.9; aglycon ([4]; Reaction time 3 h): 14.7; glucoside ([4]; Reaction time 3 h): 85.3; aglycon ([4]; Reaction time 6 h): 24.8; glucoside ([4]; Reaction time 6 h): 75.2
